The source of these data is patent US20210079384A1, “NON-INVASIVE DETECTION OF RESPONSE TO A TARGETED THERAPY” (The Johns Hopkins University, priority 2018, published 2021).

In assay [1] the test system is advanced non-small cell lung cancer (NSCLC) patients. The experiment in a line: Progression-free survival by RECIST 1.1 CT assessment in NSCLC patients on TKI therapy. It counts as in vivo, human. Particulars: single patient CGPLLU2 with metastatic disease; osimertinib 80 mg PO daily; subsequently developed resistance in the primary lung lesion. From the text:
(§1) Serial blood was drawn from fifteen advanced non-small cell lung cancer (NSCLC) patients undergoing treatment with targeted tyrosine kinase inhibitors (TKIs), afatinib or osimertinib, to directly detect somatic sequence and structural alterations in cfDNA, to monitor ctDNA dynamics during therapy, to determine cell-free tumor burden, and to predict clinical outcome (FIG. 1). Liquid biopsies were obtained from 11 radiographic responders and four radiographic non-responders immediately prior to treatment (baseline), 6-22 days post treatment, and at serial time points until disease progression. The ultrasensitive targeted error correction sequencing (TEC-Seq) approach (6) was used as well as whole genome sequencing to identify tumor-derived sequence alterations and chromosomal copy number changes in cell-free DNA (cfDNA). […] Next, changes in cfTL were evaluated within hours to days after treatment compared to baseline and assessed whether cfTL could serve as a marker of patient outcome.
For each patient, ˜5 ml of plasma were collected immediately prior to therapy (baseline), at 6-22 days after therapy initiation (median 16 days), and at additional serial time points until disease progression was confirmed by radiographic assessment (Tables S1 and S2). Target lesions were evaluated before therapy with CT/MRI imaging and approximately every six weeks until disease progression. […]

For assay [2] the test system is unchanged. The experiment in a line: Cell-free tumor load (cfTL) in plasma cfDNA by TEC-Seq during TKI therapy. It counts as in vivo, human. Particulars: single patient CGPLLU2 with metastatic disease; osimertinib 80 mg PO daily.
Excerpt: as §1, with “progression.” for “progression. The ultrasensitive targeted error correction sequencing (TEC-Seq) approach (6) was used as well as whole genome sequencing to identify tumor-derived sequence alterations and chromosomal copy number changes in cell-free DNA (cfDNA).”, “outcome. […]” for “outcome.”
For all patients, serial blood draws were collected over the course of treatment with targeted inhibition for isolation of plasma and extraction of cell-free DNA (cfDNA) for genomic analyses. Time points were analyzed immediately prior to treatment for baseline assessment as well as 6-22 days post treatment and at serial time points until disease progression (Table S2).
Sequence and copy number alterations were detected in cfDNA for each patient at each time point analyzed and used a tiered approach to evaluate tumor burden. […]

Each structure is given as a SMILES string.

With `C=CC(=O)Nc1cc(Nc2nccc(-c3cn(C)c4ccccc34)n2)c(OC)cc1N(C)CCN(C)C` [osimertinib], the progression-free survival in assay [1] was 7.0 months. In addition, the “change of cfTL from baseline to day 10” value in assay [2] is on record as “rapid decline”.
